Assay results from patent US9695155B2, “Herbicidal substituted pyrimidinyloxy benzene compounds” (E. I. DU PONT DE NEMOURS AND COMPANY, priority 2013, dated 2017).

Key:
corn = assay: Test E postemergence; assay type: in vivo, Zea mays; conditions: Zea mays, post-emergence
Outline: (§1)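 Response was scored visually on a 0-100 scale (100 = complete control) versus controls after 14 to 21 days in the greenhouse. Test chemicals, formulated with surfactant in a non-phytotoxic solvent mixture, had been applied preemergence to seeds in silt loam soil or postemergence to 1- to 4-leaf plants in potting medium.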

field violet = assay: Test D postemergence; assay type: in vivo, Viola arvensis; conditions: Viola arvensis, post-emergence
Outline: (§2)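 In a controlled growth environment, treated and control plants were held 7 to 21 days, then compared visually. Damage was scored 0–100, where 100 means complete control. Sprays contained surfactant in a non-phytotoxic solvent; post-applied plants were at the 1- to 4-leaf stage.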

soybean = assay: Test E postemergence; assay type: in vivo, Glycine max; conditions: Glycine max, post-emergence
Outline: as §1

arrowleaf sida = assay: Test E postemergence; assay type: in vivo, Sida rhombifolia; conditions: Sida rhombifolia, post-emergence, read-out: Plant response rating, Arrowleaf Sida
Outline: as §1

field poppy = assay: Test D preemergence; assay type: in vivo, Papaver rhoeas; conditions: Papaver rhoeas, pre-emergence
Outline: as §2

winter wheat [1] = assay: Test D preemergence; assay type: in vivo, Triticum aestivum; conditions: Triticum aestivum, pre-emergence
Outline: as §2

spring wheat [2] = assay: Test D preemergence; assay type: in vivo, Triticum aestivum; conditions: Triticum aestivum, pre-emergence
Outline: as §2

Brazilian crabgrass = assay: Test E postemergence; assay type: in vivo, Digitaria horizontalis; conditions: Digitaria horizontalis, post-emergence, read-out: Plant response rating, Crabgrass, Brazil
Outline: as §1

winter wheat [3] = assay: Test D postemergence; assay type: in vivo, Triticum aestivum; conditions: Triticum aestivum, post-emergence
Outline: as §2

spring wheat [4] = assay: Test D postemergence; assay type: in vivo, Triticum aestivum; conditions: Triticum aestivum, post-emergence
Outline: as §2

sandbur = assay: Test E postemergence; assay type: in vivo, Cenchrus echinatus; conditions: Cenchrus echinatus, post-emergence, read-out: Plant response rating, Sandbur
Outline: as §1

[5] = Postemergence, 31 g ai/ha, scale 0 to 100
[6] = Postemergence, 62 g ai/ha, scale 0 to 100
[7] = Postemergence, 125 g ai/ha, scale 0 to 100
[8] = postemergence, 8 g ai/ha, scale 0 to 100, 0 no effect, 100 complete control
[9] = postemergence, 16 g ai/ha, scale 0 to 100, 0 no effect, 100 complete control

**Q.** Which corn plant response (injury) rating, 0-100 at 31 g/ha (corn; [5]) does the source give for `Clc1cnc(Oc2ccccc2-n2cc(Br)cn2)nc1` [Compound 7, 2-[2-(4-bromo-1H-pyrazol-1-yl)phenoxy]-5-chloropyrimidine] here?
**A.** Its corn plant response (injury) rating, 0-100 at 31 g/ha is 0%.

**Q.** What about the corn plant response (injury) rating, 0-100 at 62 g/ha (corn; [6]) of the same compound?
**A.** The corn plant response (injury) rating, 0-100 at 62 g/ha was 10%.

**Q.** What about the corn plant response (injury) rating, 0-100 at 125 g/ha (corn; [7]) of the same compound?
**A.** The corn plant response (injury) rating, 0-100 at 125 g/ha was 5%.

**Q.** And the corn plant response (injury) rating, 0-100 at 8 g/ha (corn; [8])?
**A.** The corn plant response (injury) rating, 0-100 at 8 g/ha was 0%.

**Q.** What about the corn plant response (injury) rating, 0-100 at 16 g/ha (corn; [9]) of the same compound?
**A.** The corn plant response (injury) rating, 0-100 at 16 g/ha was 0%.

**Q.** And the pest or weed control at 16 g/ha (field violet; 16 g ai/ha, scale 0-100, read-out: Plant response rating, Field Violet)?
**A.** Its pest or weed control at 16 g/ha is 10%.

**Q.** And the pest or weed control at 31 g/ha (field violet; 31 g ai/ha, scale 0 to 100 (0 no effect, 100 complete control), read-out: Plant response rating, Field Violet)?
**A.** Its pest or weed control at 31 g/ha is 20%.

**Q.** And the pest or weed control at 62 g/ha (field violet; 62 g ai/ha, scale 0 to 100 (0 no effect, 100 complete control), read-out: Plant response rating, Field Violet)?
**A.** Its pest or weed control at 62 g/ha is 70%.

**Q.** And the pest or weed control at 125 g/ha (field violet; 125 g ai/ha, scale 0 to 100 (0 no effect, 100 complete control), read-out: Plant response rating, Field Violet)?
**A.** The pest or weed control at 125 g/ha was 70%.

**Q.** And the pest or weed control at 250 g/ha (field violet; 250 g ai/ha, scale 0 to 100 (0 no effect, 100 complete control), read-out: Plant response rating, Field Violet)?
**A.** The pest or weed control at 250 g/ha was 70%.

**Q.** What about the plant response (crop injury) rating, soybean, 0-100 scale at 31 g/ha (soybean; [5]) of the same compound?
**A.** The plant response (crop injury) rating, soybean, 0-100 scale at 31 g/ha was 90%.

**Q.** What about the plant response (crop injury) rating, soybean, 0-100 scale at 62 g/ha (soybean; [6]) of the same compound?
**A.** Its plant response (crop injury) rating, soybean, 0-100 scale at 62 g/ha is 98%.

**Q.** And the plant response (crop injury) rating, soybean, 0-100 scale at 125 g/ha (soybean; [7])?
**A.** Its plant response (crop injury) rating, soybean, 0-100 scale at 125 g/ha is 98%.

**Q.** And the plant response (crop injury) rating, soybean, 0-100 scale at 8 g/ha (soybean; [8])?
**A.** The plant response (crop injury) rating, soybean, 0-100 scale at 8 g/ha was 60%.

**Q.** What about the plant response (crop injury) rating, soybean, 0-100 scale at 16 g/ha (soybean; [9]) of the same compound?
**A.** The plant response (crop injury) rating, soybean, 0-100 scale at 16 g/ha was 80%.

**Q.** And the pest or weed control at 31 g/ha (arrowleaf sida; [5])?
**A.** The pest or weed control at 31 g/ha was 80%.

**Q.** What about the pest or weed control at 62 g/ha (arrowleaf sida; [6]) of the same compound?
**A.** Its pest or weed control at 62 g/ha is 90%.

**Q.** And the pest or weed control at 125 g/ha (arrowleaf sida; [7])?
**A.** Its pest or weed control at 125 g/ha is 95%.

**Q.** And the pest or weed control at 8 g/ha (arrowleaf sida; [8])?
**A.** Its pest or weed control at 8 g/ha is 65%.

**Q.** And the pest or weed control at 16 g/ha (arrowleaf sida; [9])?
**A.** Its pest or weed control at 16 g/ha is 75%.

**Q.** What about the pest or weed control at 16 g/ha (field poppy; 16 g ai/ha, scale 0 (no effect) to 100 (complete control), read-out: Plant response rating, Field Poppy) of the same compound?
**A.** Its pest or weed control at 16 g/ha is 0%.

**Q.** And the pest or weed control at 31 g/ha (field poppy; 31 g ai/ha, scale 0-100, read-out: Plant response rating, Field Poppy)?
**A.** Its pest or weed control at 31 g/ha is 0%.

**Q.** And the pest or weed control at 62 g/ha (field poppy; 62 g ai/ha, scale 0-100, read-out: Plant response rating, Field Poppy)?
**A.** Its pest or weed control at 62 g/ha is 30%.

**Q.** What about the pest or weed control at 125 g/ha (field poppy; 125 g ai/ha, scale 0-100, read-out: Plant response rating, Field Poppy) of the same compound?
**A.** The pest or weed control at 125 g/ha was 60%.

**Q.** What about the pest or weed control at 250 g/ha (field poppy; 250 g ai/ha, scale 0-100, read-out: Plant response rating, Field Poppy) of the same compound?
**A.** Its pest or weed control at 250 g/ha is 100%.

**Q.** And the plant injury at 16 g/ha (winter wheat [1]; 16 g ai/ha, scale 0 (no effect) to 100 (complete control), read-out: Plant response rating, Wheat, Winter)?
**A.** The plant injury at 16 g/ha was 0%.

**Q.** And the plant injury at 31 g/ha (winter wheat [1]; 31 g ai/ha, scale 0 (no effect) to 100 (complete control), read-out: Plant response rating, Wheat, Winter)?
**A.** The plant injury at 31 g/ha was 0%.

**Q.** And the plant injury at 62 g/ha (winter wheat [1]; 62 g ai/ha, scale 0-100, read-out: Plant response rating, Wheat, Winter)?
**A.** The plant injury at 62 g/ha was 0%.

**Q.** And the plant injury at 125 g/ha (winter wheat [1]; 125 g ai/ha, scale 0-100, read-out: Plant response rating, Wheat, Winter)?
**A.** Its plant injury at 125 g/ha is 5%.

**Q.** What about the plant injury at 250 g/ha (winter wheat [1]; 250 g ai/ha, scale 0-100, read-out: Plant response rating, Wheat, Winter) of the same compound?
**A.** The plant injury at 250 g/ha was 10%.

**Q.** What about the plant injury at 16 g/ha (spring wheat [2]; 16 g ai/ha, scale 0 (no effect) to 100 (complete control), read-out: Plant response rating, Wheat, Spring) of the same compound?
**A.** The plant injury at 16 g/ha was 0%.

**Q.** What about the plant injury at 31 g/ha (spring wheat [2]; 31 g ai/ha, scale 0 (no effect) to 100 (complete control), read-out: Plant response rating, Wheat, Spring) of the same compound?
**A.** The plant injury at 31 g/ha was 0%.

**Q.** What about the plant injury at 62 g/ha (spring wheat [2]; 62 g ai/ha, scale 0-100, read-out: Plant response rating, Wheat, Spring) of the same compound?
**A.** The plant injury at 62 g/ha was 0%.

**Q.** And the plant injury at 125 g/ha (spring wheat [2]; 125 g ai/ha, scale 0-100, read-out: Plant response rating, Wheat, Spring)?
**A.** The plant injury at 125 g/ha was 0%.

**Q.** And the plant injury at 250 g/ha (spring wheat [2]; 250 g ai/ha, scale 0-100, read-out: Plant response rating, Wheat, Spring)?
**A.** The plant injury at 250 g/ha was 0%.

**Q.** What about the pest or weed control at 31 g/ha (Brazilian crabgrass; [5]) of the same compound?
**A.** Its pest or weed control at 31 g/ha is 10%.

**Q.** What about the pest or weed control at 62 g/ha (Brazilian crabgrass; [6]) of the same compound?
**A.** The pest or weed control at 62 g/ha was 20%.

**Q.** What about the pest or weed control at 125 g/ha (Brazilian crabgrass; [7]) of the same compound?
**A.** The pest or weed control at 125 g/ha was 30%.

**Q.** And the pest or weed control at 8 g/ha (Brazilian crabgrass; [8])?
**A.** The pest or weed control at 8 g/ha was 0%.

**Q.** And the pest or weed control at 16 g/ha (Brazilian crabgrass; [9])?
**A.** Its pest or weed control at 16 g/ha is 0%.

**Q.** And the plant injury at 16 g/ha (winter wheat [3]; 16 g ai/ha, scale 0-100, read-out: Plant response rating, Wheat, Winter)?
**A.** The plant injury at 16 g/ha was 0%.

**Q.** And the plant injury at 31 g/ha (winter wheat [3]; 31 g ai/ha, scale 0 to 100 (0 no effect, 100 complete control), read-out: Plant response rating, Wheat, Winter)?
**A.** Its plant injury at 31 g/ha is 0%.

**Q.** What about the plant injury at 62 g/ha (winter wheat [3]; 62 g ai/ha, scale 0 to 100 (0 no effect, 100 complete control), read-out: Plant response rating, Wheat, Winter) of the same compound?
**A.** Its plant injury at 62 g/ha is 0%.

**Q.** And the plant injury at 125 g/ha (winter wheat [3]; 125 g ai/ha, scale 0 to 100 (0 no effect, 100 complete control), read-out: Plant response rating, Wheat, Winter)?
**A.** The plant injury at 125 g/ha was 10%.

**Q.** And the plant injury at 250 g/ha (winter wheat [3]; 250 g ai/ha, scale 0 to 100 (0 no effect, 100 complete control), read-out: Plant response rating, Wheat, Winter)?
**A.** Its plant injury at 250 g/ha is 10%.

**Q.** And the plant injury at 16 g/ha (spring wheat [4]; 16 g ai/ha, scale 0-100, read-out: Plant response rating, Wheat, Spring)?
**A.** The plant injury at 16 g/ha was 0%.

**Q.** What about the plant injury at 31 g/ha (spring wheat [4]; 31 g ai/ha, scale 0 to 100 (0 no effect, 100 complete control), read-out: Plant response rating, Wheat, Spring) of the same compound?
**A.** Its plant injury at 31 g/ha is 0%.

**Q.** What about the plant injury at 62 g/ha (spring wheat [4]; 62 g ai/ha, scale 0 to 100 (0 no effect, 100 complete control), read-out: Plant response rating, Wheat, Spring) of the same compound?
**A.** Its plant injury at 62 g/ha is 0%.

**Q.** What about the plant injury at 125 g/ha (spring wheat [4]; 125 g ai/ha, scale 0 to 100 (0 no effect, 100 complete control), read-out: Plant response rating, Wheat, Spring) of the same compound?
**A.** The plant injury at 125 g/ha was 10%.

**Q.** And the plant injury at 250 g/ha (spring wheat [4]; 250 g ai/ha, scale 0 to 100 (0 no effect, 100 complete control), read-out: Plant response rating, Wheat, Spring)?
**A.** The plant injury at 250 g/ha was 10%.

**Q.** And the pest or weed control at 31 g/ha (sandbur; [5])?
**A.** The pest or weed control at 31 g/ha was 0%.

**Q.** And the pest or weed control at 62 g/ha (sandbur; [6])?
**A.** The pest or weed control at 62 g/ha was 0%.

**Q.** What about the pest or weed control at 125 g/ha (sandbur; [7]) of the same compound?
**A.** Its pest or weed control at 125 g/ha is 0%.

**Q.** And the pest or weed control at 8 g/ha (sandbur; [8])?
**A.** Its pest or weed control at 8 g/ha is 0%.

**Q.** What about the pest or weed control at 16 g/ha (sandbur; [9]) of the same compound?
**A.** The pest or weed control at 16 g/ha was 0%.
